Test results from ChEMBL document CHEMBL3817846, “Isomeric iodinated analogs of nimesulide: Synthesis, physicochemical characterization, cyclooxygenase-2 inhibitory activity, and transport across Caco-2 cells” (Bioorg Med Chem, 2016).

Key:
[1] = Stability in Balb/cCrSlc mouse plasma assessed as parent compound remaining up to 120 mins by HPLC analysis; format: ADME, cell-free; conditions: read-out: Stability
[2] = Acid dissociation constant, pKa of compound at 20 ug/ml at pH 5.6 to 6.8 by micro-scale spectrophotometric method; format: physicochemical
[3] = Octanol-water partition coefficient, log P of compound at pH 7.4 by reverse phase HPLC analysis; format: physicochemical
[4] = biological target: T1, Prostaglandin G/H synthase 1 (Ovis aries, UniProt P05979); assay: Inhibition of heme catalyzed hydroperoxidase activity of ovine COX-1 using arachidonic acid as substrate preincubated for 5 mins followed by substrate addition measured after 5 mins by TMPD oxidation based colorimetric assay
T1 sequence (P05979 whole entry): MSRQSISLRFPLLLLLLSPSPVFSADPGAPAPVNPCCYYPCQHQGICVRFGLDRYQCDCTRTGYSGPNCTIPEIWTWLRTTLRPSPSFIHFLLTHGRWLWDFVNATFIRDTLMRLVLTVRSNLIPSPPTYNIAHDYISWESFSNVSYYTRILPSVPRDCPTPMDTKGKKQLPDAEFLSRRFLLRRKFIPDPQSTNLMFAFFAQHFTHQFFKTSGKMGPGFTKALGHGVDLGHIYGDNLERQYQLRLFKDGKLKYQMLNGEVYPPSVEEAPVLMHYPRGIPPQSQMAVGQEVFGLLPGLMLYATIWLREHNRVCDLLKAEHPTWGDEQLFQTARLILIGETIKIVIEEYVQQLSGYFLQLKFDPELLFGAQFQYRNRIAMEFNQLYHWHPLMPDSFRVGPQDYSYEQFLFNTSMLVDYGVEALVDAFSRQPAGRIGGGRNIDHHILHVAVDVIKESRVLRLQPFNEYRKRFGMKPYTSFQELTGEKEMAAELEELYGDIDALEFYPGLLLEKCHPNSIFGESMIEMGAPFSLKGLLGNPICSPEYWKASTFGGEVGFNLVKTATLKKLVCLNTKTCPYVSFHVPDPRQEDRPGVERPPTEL

[5] = biological target: T2, Prostaglandin G/H synthase 2 (Ovis aries, UniProt P79208); assay: Inhibition of heme catalyzed hydroperoxidase activity of ovine COX-2 using arachidonic acid as substrate preincubated for 5 mins followed by substrate addition measured after 5 mins by TMPD oxidation based colorimetric assay
T2 sequence (P79208 whole entry): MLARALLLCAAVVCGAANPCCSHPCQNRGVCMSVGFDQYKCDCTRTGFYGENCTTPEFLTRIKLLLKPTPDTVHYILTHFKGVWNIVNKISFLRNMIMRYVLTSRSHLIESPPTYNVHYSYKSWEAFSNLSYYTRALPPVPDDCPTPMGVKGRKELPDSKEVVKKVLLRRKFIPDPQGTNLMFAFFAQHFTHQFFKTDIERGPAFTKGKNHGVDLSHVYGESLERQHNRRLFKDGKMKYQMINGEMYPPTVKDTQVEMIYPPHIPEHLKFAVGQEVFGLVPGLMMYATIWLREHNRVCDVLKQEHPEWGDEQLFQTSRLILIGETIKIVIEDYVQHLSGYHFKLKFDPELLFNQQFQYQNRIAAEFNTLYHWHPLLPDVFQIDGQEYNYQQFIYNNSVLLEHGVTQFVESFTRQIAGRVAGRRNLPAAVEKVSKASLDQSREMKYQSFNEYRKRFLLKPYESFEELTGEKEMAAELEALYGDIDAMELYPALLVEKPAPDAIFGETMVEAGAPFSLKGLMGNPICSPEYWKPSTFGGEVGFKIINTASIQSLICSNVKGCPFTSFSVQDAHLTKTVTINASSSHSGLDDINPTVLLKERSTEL

[6] = Apparent permeability from apical to basolateral side in human Caco2 cells at 1 uM after 1 to 2 hrs by LC-MS analysis; format: ADME, cell-based; conditions: Caco-2
[7] = Apparent permeability from basolateral to apical side in human Caco2 cells at 1 uM after 1 to 2 hrs by LC-MS analysis; format: ADME, cell-based; conditions: Caco-2
[8] = Efflux ratio of permeability from basolateral to apical side over apical to basolateral side in human Caco2 cells at 1 uM after 1 to 2 hrs by LC-MS analysis; format: ADME, cell-based; conditions: Caco-2
[9] = Apparent permeability from apical to basolateral side in human Caco2 cells at 10 uM after 1 to 2 hrs by LC-MS analysis; format: ADME, cell-based; conditions: Caco-2
[10] = Apparent permeability from basolateral to apical side in human Caco2 cells at 10 uM after 1 to 2 hrs by LC-MS analysis; format: ADME, cell-based; conditions: Caco-2
[11] = Efflux ratio of permeability from basolateral to apical side over apical to basolateral side in human Caco2 cells at 10 uM after 1 to 2 hrs by LC-MS analysis; format: ADME, cell-based; conditions: Caco-2

| Compound | remaining at 2 h [1] [%] | pKa [2] | logP [3] | IC50 [4] [µM] | IC50 [5] [µM] | Papp A→B at 1 µM [6] [×10⁻⁶ cm/s] | Papp B→A at 1 µM [7] [×10⁻⁶ cm/s] | efflux ratio at 1 µM [8] | Papp A→B at 10 µM [9] [×10⁻⁶ cm/s] | Papp B→A at 10 µM [10] [×10⁻⁶ cm/s] | efflux ratio at 10 µM [11] |
| --- | --- | --- | --- | --- | --- | --- | --- | --- | --- | --- | --- |
| COc1ccccc1Oc1cc([N+](=O)[O-])ccc1NS(C)(=O)=O | 97.6 | 7.07 |  |  |  |  |  |  |  |  |  |
| COc1cccc(Oc2cc([N+](=O)[O-])ccc2NS(C)(=O)=O)c1 | 99.3 | 6.87 |  |  |  |  |  |  |  |  |  |
| COc1ccc(Oc2cc([N+](=O)[O-])ccc2NS(C)(=O)=O)cc1 | 98.5 | 7.01 |  |  |  |  |  |  |  |  |  |
| CS(=O)(=O)Nc1ccc([N+](=O)[O-])cc1Oc1ccccc1I | 95 | 6.57 | 2.11 | > 100 | > 100 | 30.1 | 21.9 | 0.72 | 33.8 | 26.4 | 0.78 |
| CS(=O)(=O)Nc1ccc([N+](=O)[O-])cc1Oc1ccc(I)cc1 | 97.5 | 6.89 | 2.77 | > 100 | 0.47 | 40.5 | 18.3 | 0.45 | 17.1 | 13.4 | 0.78 |
| CS(=O)(=O)Nc1ccc([N+](=O)[O-])cc1Oc1cccc(I)c1 | 98.4 | 6.74 | 2.72 | > 100 | > 100 | 31.4 | 26.4 | 0.84 | 27 | 18 | 0.67 |
| CS(=O)(=O)Nc1ccc([N+](=O)[O-])cc1Oc1ccccc1 [NIMESULIDE] | 98 | 6.57 |  |  |  |  |  |  |  |  |  |
